Measurements published in patent US10624897B2, “Chlorobenzene substituted azaaryl compounds” (TAIPEI MEDICAL UNIVERSITY, priority 2015, dated 2020).
Values joined by “and” are separate entries in the source; they are usually repeats but may differ in a detail not shown here. Identical values can stand only once. Like-named read-outs stand apart in the source and are kept apart here.

Key:
FGFR signaling = assay: Western blot of FGFR signaling in RT-112 cells; type: cell-based
Excerpt: BGJ-398, a known selective inhibitor of FGFR1 to FGFR3, was included as a reference compound. […] The major downstream pathways of FGFRs are MAPK, PI3K/AKT, and PLC-γ. RT-112 cells, which express FGFR3-TACC3, are reportedly unable to activate PLCγ due to a deletion of the last exon of FGFR3.

RT-112 cells = assay: Western blot of G0/G1 regulatory proteins; type: cell-based; conditions: 24 h, FIG. 3C
Protocol: C. […] Apoptosis was assessed via detection of cleaved caspase-3 and PARP.
We observed that genes associated with cell cycle progression were decreased in MPT0L145-treated cells. […] This phenomenon was also observed in the cells treated with BGJ-398 (FIG. 3A). […] Next, we examined expression of G0/G1 regulatory proteins via western blot. […] The possibility of MPT0L145-induced apoptosis was further eliminated by examining cleavage of caspase-3 and its substrate, PARP, in 72 h, compared with paclitaxel (FIG. 3D).

RT-112 tumor xenografts = conditions: for Tumor growth inhibition (%): i.p., nude mice
Protocol: Eight-week-old female athymic nude mice were group-housed in the TMU Laboratory Animal Center (Taipei, Taiwan) under conditions of constant photoperiod (12 h light/12 h dark at 21-0023° C. and 60-85% humidity) with ad libitum access to sterilized food and water. […] Tumors were measured weekly using calipers. Tumor volume (mm3) was calculated from w2×½ (w=width, 1=length in mm of the tumor).

FGFR3 = molecular target: T1, FGFR3 (Homo sapiens, UniProt P22607); assay: Kinase binding assay (Kd); conditions: FGFR3 (wild-type)
T1 construct: made in house; host or cells: E. coli BL21-derived host (T7 phage) or HEK-293
Protocol: (§1) Kinase assays. For most assays, kinase-tagged T7 phage strains were prepared in an E. coli host derived from the BL21 strain. E. coli were grown to log-phase and infected with T7 phage and incubated with shaking at 32° C. until lysis. The lysates were centrifuged and filtered to remove cell debris. The remaining kinases were produced in HEK-293 cells and subsequently tagged with DNA for qPCR detection. […] The liganded beads were blocked with excess biotin and washed with blocking buffer (SeaBlock (Pierce), 1% BSA, 0.05% Tween 20, 1 mM DTT) to remove unbound ligand and to reduce non-specific binding. […] All reactions were performed in polystyrene 96-well plates in a final volume of 0.135 ml. […] The kinase concentration in the eluates was measured by qPCR.
(§2) An 11-point 3-fold serial dilution of each test compound was prepared in 100% DMSO at 100× final test concentration and subsequently diluted to 1× in the assay (final DMSO concentration=1%). Most Kds were determined using a compound top concentration=30,000 nM.
(§3) Binding constants (Kds) were calculated with a standard dose-response curve using the Hill equation: […]
(§4) The Hill Slope was set to −1. Curves were fitted using a non-linear least square fit with the Levenberg-Marquardt algorithm.
(§5) The compound and assay method are similar to those mentioned in Example 45.

FGFR3(V555M) = molecular target: T2, FGFR3(V555M) (Homo sapiens, UniProt P22607, V555M); assay: Kinase binding assay (Kd), mutant FGFR3
T2 construct: made in house; host or cells: E. coli BL21-derived host (T7 phage) or HEK-293
Protocol: as §1, §2, §3, §4, §5

FGFR3(G697C) = molecular target: T3, FGFR3(G697C) (Homo sapiens, UniProt P22607, G697C); assay: Kinase binding assay (Kd), mutant FGFR3
T3 construct: made in house; host or cells: E. coli BL21-derived host (T7 phage) or HEK-293
Protocol: as §1, §2, §3, §4, §5

FGFR3(K650E) = molecular target: T4, FGFR3(K650E) (Homo sapiens, UniProt P22607, K650E); assay: Kinase binding assay (Kd), mutant FGFR3
T4 construct: made in house; host or cells: E. coli BL21-derived host (T7 phage) or HEK-293
Protocol: as §1, §2, §3, §4, §5

HUVEC = assay: MTT assay, viability of normal cells; type: cell-based, Human; conditions: 72 hours, FIG. 1B
Protocol: Cell viability was assessed the MTT assay. […] Data are expressed as means±S.D. (***P<0.001 compares to control group).
(§6) Cells were cultured in RPMI-1640 (RT-112, KMS-11, SNU-16, HT-29, HCT-116, NCI—H520, Hep3B, PLC/PRF/5, HL-60, MOLT-4) and DMEM (HepG2, MCF-7, MDA-MB-231) with 10% FBS (v/v) and Penicillin/Streptomycin (100 U/ml). FU-DDLS-1 cell line was maintained in DMEM:F12 medium with 10% FBS. LiSa-2 cell line was maintained in IMDM/RPMI-1640 in a 4:1 ratio supplemented with 10% FBS, 2 mmol/L L-glutamine, and 0.1 mg/mL gentamicin. Human umbilical vein endothelial cells (HUVECs) were grown to confluence on 1% collagen, and maintained in 90% Medium 199 with 25 U/ml heparin, 30 μg/ml endothelial cell growth supplement (ECGS) adjusted to contain 1.5 g/L sodium bicarbonate, 10% FBS and Penicillin/Streptomycin (100 U/ml) Cultures were maintained at 37° C. in a humidified atmosphere of 5% CO2/95% air.
Cells were seeded in 96-well plates (5,000 cells/well) and incubated overnight for attachment, and were then treated with indicated agents in 10% FBS-supplemented medium for 72 hours. […] After removal of medium, the cells were lysed with 100 μL per well dimethyl sulfoxide (DMSO), and absorbance at 550 nm was measured with microplate reader. The relative cell viability (%) was expressed as a percentage relative to a DMSO control cells.

SNU-16 = assay: MTT assay, cell viability; type: cell-based; conditions: 72 hours
Protocol: as §6
(§7) Cells were seeded in 96-well plates (5,000 cells/well) and incubated overnight for attachment, and were then treated with indicated agents in 10% FBS-supplemented medium for 72 hours. The medium was replaced with MTT (0.5 mg/mL) at 37° C. for 1 hours. After removal of medium, the cells were lysed with 100 μL per well dimethyl sulfoxide (DMSO), and absorbance at 550 nm was measured with microplate reader. The relative cell viability (%) was expressed as a percentage relative to a DMSO control cells.

HL-60 = assay: MTT assay, cell viability; type: cell-based; conditions: Homo sapiens; HL-60, AML, 72 hours; read-out: IC50 (μM, Mean ± SD)
Protocol: as §6, §7

HT-29 = assay: MTT assay, cell viability; type: cell-based; conditions: Homo sapiens; HT-29, Colorectal, 72 hours; read-out: IC50 (μM, Mean ± SD)
Protocol: as §6, §7

MOLT-4 = assay: MTT assay, cell viability; type: cell-based; conditions: Homo sapiens; MOLT-4, ALL, 72 hours; read-out: IC50 (μM, Mean ± SD)
Protocol: as §6, §7

RT-112 = assay: MTT assay, cell viability; type: cell-based; conditions: 72 hours
Protocol: as §6, §7

PLC/PRF/5 = assay: MTT assay, cell viability; type: cell-based; conditions: PLC5, 5 uM, 72 hours
Protocol: as §6, §7

Hep3B = assay: MTT assay, cell viability; type: cell-based; conditions: 5 uM, 72 hours
Protocol: as §6, §7

T1 sequence (P22607 23-806): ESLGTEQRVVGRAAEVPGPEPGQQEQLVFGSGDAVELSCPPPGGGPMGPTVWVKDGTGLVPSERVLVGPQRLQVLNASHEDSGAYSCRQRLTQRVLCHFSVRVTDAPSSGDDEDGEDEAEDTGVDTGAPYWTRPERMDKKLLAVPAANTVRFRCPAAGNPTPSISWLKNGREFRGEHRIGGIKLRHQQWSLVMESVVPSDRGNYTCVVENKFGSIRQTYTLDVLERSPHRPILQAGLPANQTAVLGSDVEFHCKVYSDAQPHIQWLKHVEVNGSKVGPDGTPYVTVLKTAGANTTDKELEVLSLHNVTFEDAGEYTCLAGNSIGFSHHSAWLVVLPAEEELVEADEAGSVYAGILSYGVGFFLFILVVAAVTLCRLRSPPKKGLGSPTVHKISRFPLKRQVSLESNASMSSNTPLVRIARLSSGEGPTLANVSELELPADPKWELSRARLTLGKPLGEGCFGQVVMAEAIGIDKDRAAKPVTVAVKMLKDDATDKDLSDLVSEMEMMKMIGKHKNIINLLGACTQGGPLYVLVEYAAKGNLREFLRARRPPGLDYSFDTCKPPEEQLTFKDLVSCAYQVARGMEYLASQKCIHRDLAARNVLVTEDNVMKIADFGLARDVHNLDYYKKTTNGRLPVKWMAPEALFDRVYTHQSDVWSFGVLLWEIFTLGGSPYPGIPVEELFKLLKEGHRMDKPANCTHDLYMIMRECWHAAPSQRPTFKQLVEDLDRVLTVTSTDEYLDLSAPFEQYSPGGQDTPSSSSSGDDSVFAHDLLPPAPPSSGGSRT
T4 sequence (P22607 23-806 K650E): as the sequence (P22607 23-806) above, with K628E counted along it
T3 sequence (P22607 23-806 G697C): as the sequence (P22607 23-806) above, with G675C counted along it
T2 sequence (P22607 23-806 V555M): as the sequence (P22607 23-806) above, with V533M counted along it

Kd (FGFR3): 270 nM and 390 nM
Kd (FGFR3(V555M)): > 10000 nM
Kd (FGFR3(G697C)): 390 nM
Kd (FGFR3(K650E)): 240 nM
IC50 (HL-60): 4.72 ± 1.46 µM
IC50 (HT-29): 2.49 ± 0.29 µM
IC50 (MOLT-4): 3.7 ± 0.2 µM
Structure (SMILES): CCN1CCN(c2ccc(Nc3ncnc(N(C)C(=O)Nc4c(Cl)c(OC)c(Cl)c(OC)c4Cl)n3)cc2)CC1 [MPT0L145, 1-(4-((4-(4-ethylpiperazin-1-yl)phenyl)amino)-1,3,5-triazin-2-yl)-1-methyl-3-(2,4,6-trichloro-3,5-dimethoxyphenyl)urea]
inhibiting AKT phosphorylation (FGFR signaling; 1 to 4 h, FIG. 2B, 2C): better potency than BGJ-398
auto-phosphorylation of FGFR1 and FGFR3 and docking protein FRS2 (FGFR signaling; 1 h, FIG. 2A): exerted inhibitory activity
phosphorylation of ERK (FGFR signaling; 1 h, concentration-dependent, FIG. 2B): inhibited
phosphorylation of ERK and AKT (FGFR signaling; 8 h, FIG. 2D): fully repressed
cyclin E levels (RT-112 cells): marked decrease
p16 level (RT-112 cells): slight increase
Tumor growth inhibition (%) (RT-112 tumor xenografts; 5 mg/kg/d): 61.4%
Tumor growth inhibition (%) (RT-112 tumor xenografts; 10 mg/kg/d): 74.6%
tumor growth (RT-112 tumor xenografts; 5 and 10 mg/kg/d i.p., dose-dependent): significantly suppressed tumor growth
toxicity in normal cells (HUVEC) compared with BGJ-398 (HUVEC): significantly lower toxicity
Viability (% of control cells) SNU-16 (5 uM) Mean (SNU-16): 36.9 % of control cells
Viability (% of control cells) RT-112 (5 uM) Mean (RT-112; RT-112, 5 uM): 33.4 % of control cells
Viability (% of control cells) RT-112 (10 uM) Mean (RT-112; RT-112, 10 uM): 8.5 % of control cells
Viability (% of control cells) PLC5 (5 uM) Mean (PLC/PRF/5): 20.6 % of control cells
Viability (% of control cells) Hep3B (5 uM) Mean (Hep3B): 66.2 % of control cells
